The values that follow come from patent US8476240B2, “Histidine related compounds for identifying and blocking amyloid beta ion channels” (priority 2008, dated 2013).

One data set deals with Aβ channel. As to the kind of experiment: Aβ channels incorporated into planar lipid bilayers, ionic current recording. It counts as biochemical. The note with it: for blocking of the flow of ionic charges conducted by Aβ channels: His 41.5 μM, NAHIS compounds 16.6 μM (FIG. 5B); for blocking of Aβ channel current activity / reversibility of Aβ channel blockage after washing the chamber: planar lipid bilayer; for blocking of Aβ channel current activity: zero membrane potential; for time to block the flow of ionic charges through Aβ channels: 41.5 μM (FIG. 5B left plot); for reversibility of Aβ channel blockage after washing the chamber: after washing off the blocker; for time to reduce the flow of ionic charges through the membrane by 50%: 16.6 μM. How it is done: Planar Lipid Bilayer Methodology: A suspension of palmitoyloleoyl phosphatidylserine and palmitoyloleoyl phosphatidylethanolamine, (Avanti, Alabaster, Ala.) 1:1, in η-decane was prepared. This suspension was applied to an orifice of about 100-120 μm in diameter with a Teflon film separating two compartments, 1.2 ml volume each. The ionic solutions in the compartments contained asymmetrical concentrations of CsCl (200cis/50trans mM) and symmetrical 0.5 mM CaCl2 and 5 mM K-HEPES, pH 7. The two ionic compartments were electrically connected to the input of a voltage clamp amplifier. Current was recorded using a patch clamp amplifier and data were stored on computer disk memory. Off-line analysis of the channel activity was carried out using the software package pClamp (Axon Instruments, Foster City, Calif.). Incorporation of Aβ peptide into the bilayer was obtained by adding an aliquot of proteoliposome (Aβ-liposome) suspension to the solution in the cis side of the planar lipid bilayer chamber and stirring.
Preparation of Proteoliposomes: Liposomes were prepared by hydration of air-dried palmitoyloleoyl phosphatidylserine (10 mg) with 1 M potassium aspartate, pH 7.0 (1 ml), followed by water sonication for 5 min. The liposome suspension (50 μl) was mixed with a stock aqueous solution of Aβ peptide (1 mg/ml, obtained from Bachem, Torrance, Calif. and from AnaSpec, San Jose, Calif.), followed by sonication.
Based on the theoretical model proposed by Durell et al. (1994), the predicted pore region of the Aβ channel is made of the hydrophilic structure composed of residues 1-16. The structure formed by a radial polymer of four to six Aβ subunits predicts that rings of His residues surround and form the path for the ions passing through the pore. […] This interaction will block the entrance to the Aβ pore, and consequently affect the flow of current through the Aβ channel. Therefore, various compounds of known His coordinating capacity were studied for their interaction with Aβ channels incorporated into planar lipid bilayers. No membrane potential difference was applied to the lipid bilayers, to avoid any disturbing effect the membrane potential may have on the channel activity and in the conformations of the channel.
Here the effectiveness of the His-coordinating and His-related compounds was studied in terms of the time required to block the Aβ channel currents. […] When Aβ channels are incorporated into artificial membranes, they form multi-conductance systems. This is manifested by frequently fluctuating conductance between specific levels. […] The results were analyzed by an alternative procedure that quantifies the total ionic current flowing through the Aβ channel incorporated into the artificial lipid membrane at any given time. For this purpose, we integrated the total ionic current flowing through the membrane and averaged the amount of charge conducted in consecutive time intervals of 8 msec duration.
Planar Lipid Bilayer Methodology and Preparation of Proteoliposomes: The experiments were performed as described previously except that the suspension of palmitoyloleoyl phosphatidylserine and palmitoyloleoyl phosphatidylethanolamine was applied to an orifice of about 80-100 μm in diameter with a Teflon film separating two compartments. In addition, the liposome suspension (50 μl) was mixed with a stock aqueous solution of Aβ40 (1 mg/ml; obtained from Invitrogen, Carlsbad, Calif.).

Data set [1] deals with PC12 cells, cortical and hippocampal neurons. As to the kind of experiment: cells. The note with it: for protection of cells from Aβ cytotoxicity: three days of incubation, XTT and LDH, three cell types; for protection of cells from Aβ cytotoxicity / concentration required for 50% protection (EC50): Aβ peptide 5 μM; for concentration required for 50% protection (EC50): three different types of cells, three days. The protocol: Cell culture: PC 12 cells, derived from a transplantable rat pheochromocytoma (ATCC # CRL 1721), were cultured in the recommended ATCC medium. Primary cultures of hippocampal and cortical neurons from […] rat brains were grown in neurobasal medium/B27 (GIBCO). For neurons preparation, pregnant rats were anesthetized and killed to extract the fetuses. For pain alleviation, the animals were anesthetized following recommendations in the 2000 Report of the American Veterinary Medical Association Panel on Euthanasia. Brains from the fetuses were dissected out and neuronal cell cultures prepared as in a previously described protocol (Simakova and Arispe, 2006).
Cell viability assays: The percentage of cells protected from Aβ-induced cell death by various treatments was evaluated by means of a colorimetric XTT assay (Cell Proliferation Kit II, Roche, Mannheim, Germany). The cytotoxicity was also directly measured by the release of lactate dehydrogenase (LDH) from the cytosol into the media (Cytotoxicity Detection Kit (LDH), Roche, Mannheim, Germany).
Cell viability was examined using two different assays. These were the colorimetric XTT assay that quantifies metabolically active cells, and an assay that measures the release of lactate dehydrogenase (LDH) from the cytosol into the media, which evaluates the cell membrane integrity. […] The left panels (A, C and E) show the results from the XTT assay expressed as a percentage of cytotoxicity, and the right panels (B, D and F) show the results from the measurements of LDH released from cells into the media expressed as a percentage of protection of cells.
On the technique in general: Formazan colour is commonly taken as a measure of viable cells.

The subject of data set [2] is PC12 cells. Nature of the data set: Protection of PC12 cells from Aβ cytotoxicity (LDH release / cell viability assay). It counts as cell-based. How it is done:
Previous studies have shown that the native peptide fragments from the Aβ polypeptide, NA4 (SEQ ID NO: 3) and NA7 (SEQ ID NO: 4), are able to block Aβ channel activity and protect cells from Aβ cytotoxicity. […] The concentration required for 50% protection (half maximal effective concentration, EC50) for NAHIS04 was less than 1 μM (Panel B). It was also between 2-3 times less than the EC50 for either NA4 or NA7.
A general note: LDH in the medium is a marker of cell lysis.

The subject of data set [3] is PC12 cells. Nature of the data set: Aβ-induced intracellular free calcium change in FURA-2AM loaded PC12 cells. Type of data set: cell-based, rat. As to conditions: Aβ 7.66 μM; for block of Aβ-induced intracellular calcium increase: compound 16.66 μM, 15 minute time course. The protocol: Intracellular Free Calcium measurements: Cells were plated on glass cover slips coated with poly-L-lysine and loaded with 2 μM FURA-2AM (Molecular Probes) calcium sensitive probe in incubation buffer (135 mM NaCl, 5 mM KCl, 2.5 mM CaCl2, 1.2 mM MgCl2, 10 mM glucose, 10 mM Hepes, pH 7.4). After 30 min of loading period, cells were treated with Aβ (7.66 μM). The time course of changes in the emission from FURA-2AM was observed using an inverted epi-fluorescence/phase contrast microscope equipped with a low-light level integrating CCD camera+microphotometer assembly (InCy I/P-2 Imaging & Photometry System, Intracellular Imaging INC.)
A 15 minute time course experiment was performed of the intracellular free calcium change in six FURA-2AM loaded PC 12 cells before and after the addition of Aβ (7.66 μM) and Aβ+His-related compound (16.66 μM).
Experiments in this Example were performed to determine if there was concentration dependence blockage of the Aβ-induced intracellular calcium response by NAHIS04. A time course of the intracellular free calcium change was taken in FURA-2AM loaded PC12 cells before and after the addition of Aβ (7.66 μM) to media containing different concentrations of NAHIS04. FIG. 11 illustrates that the concentration of the Aβ channel blocker is important and that the most efficient concentration of NAHIS04 for the blockage occurred at >5 μM.

SMILES strings stand for the structures. “Also recorded” adds a separate entry of the source. Read-outs that look alike come from different tables or passages of the source. Residues, ends and D or L forms follow the SMILES beside them. A value given as a limit tells only on which side of the number the result lay.

Take `N[C@@H](Cc1c[nH]cn1)C(=O)O` [His, L-histidine, reference compound]: in the data set on Aβ channel, the “blocking of the flow of ionic charges conducted by Aβ channels” value (from here on “blocking of the flow … by Aβ channels”) was “very slow-acting or had almost no channel-blocking capacity”; the “blocking of Aβ channel current activity” value was “only affect the current peaks of 5.8 and 4.2 pA; also recorded: mildly reduces the Aβ channel activity”.
As to `[Cl][Ni][Cl]` [Ni^2+, NiCl2, reference compound], in the data set with Aβ channel, the “time to block the flow of ionic charges through Aβ channels” value worked out at 120 s, the “reversibility of Aβ channel blockage after washing the chamber” value (“reversibility of Aβ channel blockage” below) is “irreversible” and the “blocking of Aβ channel current activity” value was “full block of the channel”. Also, in the data set with Aβ channel (listed as nickel), the “reversibility of Aβ channel blockage” value is “irreversibly block”. Besides, the “toxicity of the compound to cells” value in data set [1] (high concentrations) is on record as “cell-dependent toxicity at high concentrations”. For the same compound, the “protection of cells from Aβ cytotoxicity” value in data set [1] was “fully protect the cells against Aβ cytotoxicity”.
On to `CC(=O)N[C@@H](Cc1cncn1C)C(=O)N[C@@H](Cc1cncn1C)C(N)=O` [NAHIS02-(π-Met), Ac-His-π-Met-His-π-Met-CONH2], for which, in the data set on Aβ channel, the “blocking of the flow … by Aβ channels” value is on record as “showed no blocking capacity” and the “blocking of Aβ channel current activity” value is “did not affect the Aβ channel activity even at a fourfold higher concentration; also recorded: unable to block the Aβ channel activity even at a fourfold higher concentration”. In addition, the “protection of PC12 cells against Aβ” value in the data set with PC12 cells [2] (Example 6, LDH assay, Aβ40 for 24 hrs) is on record as “did not protect the cells against Aβ”. In addition, in the data set on PC12 cells [3], the “block of Aβ-induced intracellular calcium increase” value is given as “has lost this ability”.
For `CC(=O)N[C@@H](Cc1c[nH]cn1)C(=O)N[C@@H](Cc1c[nH]cn1)C(N)=O` [NAHIS02, Ac-His-His-CONH2], in the data set on Aβ channel, the “time to reduce the flow of ionic charges through the membrane by 50%” value is 125 s, the “reversibility of Aβ channel blockage” value is “reversed; also recorded: some recovery of channel activity” and the “blocking of Aβ channel current activity” value is recorded as “efficiently block the multiple conductances”. In addition, in the data set with Aβ channel (16.66 μM), the “effect on Aβ channel current peaks” value is “removed all current peaks”, the “time to reduce the Aβ channel activity to occasional channel openings” value is “several minutes” and the “time to totally block the Aβ channel activity” value is “less than three”. Also, the “concentration required for 50% protection (EC50)” value in data set [1] is listed as “below the micromolar levels”. For the same compound, the “block of Aβ-induced intracellular calcium increase” value with PC12 cells [3] was “has the capacity to block Aβ-induced intracellular calcium increase”.
Turning to `CC(=O)N[C@@H](Cc1c[nH]cn1)C(N)=O` [NAHIS01, Ac-His-CONH2], in the data set with Aβ channel, the “blocking of the flow … by Aβ channels” value was “does not fully prevent the flow of ionic charges” and the “blocking of Aβ channel current activity” value is reported as “more effective at reducing all current peaks at much lower concentrations than unmodified His; also recorded: did not operate as a full channel blocker; also recorded: very efficient at blocking the Aβ ion channel”.
For the compound `c1c[nH]cn1` [imidazole, reference compound], in the data set with Aβ channel, the “time to block the flow of ionic charges through Aβ channels” value was 30 s, the “reversibility of Aβ channel blockage” value is “irreversibly block; also recorded: irreversible” and the “blocking of Aβ channel current activity” value is “full block of the channel”. Besides, the EC50 in data set [1] (Rattus norvegicus, PC-12, 72 h, read-out: concentration required for 50% protection (EC50)) was in the range of 2000 to 3000 nM.
Consider `CC(=O)N[C@@H](CO)C(=O)NCC(=O)N[C@@H](Cc1ccc(O)cc1)C(=O)N[C@@H](CCC(=O)O)C(=O)N[C@H](C(=O)N[C@@H](Cc1c[nH]cn1)C(=O)N[C@@H](Cc1c[nH]cn1)C(N)=O)C(C)C` [NA4mod, Ac-SGYEVHH-CONH2] (Ac-SGYEVHH-NH2), for which the “percent protection of PC12 cells from Aβ cytotoxicity” value in the data set with PC12 cells [2] (Example 9, cell viability assay (FIG. 13)) is “percent protection is similar to the protection shown by NAHIS04”.
Turning to `CC(=O)N[C@@H](Cc1c[nH]cn1)C(=O)N[C@@H](Cc1c[nH]cn1)C(=O)N[C@@H](Cc1c[nH]cn1)C(=O)N[C@@H](Cc1c[nH]cn1)C(N)=O` [NAHIS04, Ac-His-His-His-His-CONH2] (Ac-HHHH-NH2), in the data set on Aβ channel, the “time to reduce the flow of ionic charges through the membrane by 50%” value came out at 15 s, the “reversibility of Aβ channel blockage” value is “irreversible; also recorded: stayed fully blocked after the chamber was washed” and the “blocking of Aβ channel current activity” value was “efficiently block the multiple conductances”. Further, in the data set on Aβ channel (16.66 μM), the “effect on Aβ channel current peaks” value was “removed all current peaks” and the “time to reduce the Aβ channel activity to occasional channel openings” value worked out at 20 s. Further, in the data set on Aβ channel (NAHIS04 versus NAHIS02), the “speed of 50% reduction of ionic charge flow compared to NAHIS02” value is given as “eightfold”. Further, in data set [1], the “protection of cells from Aβ cytotoxicity” value is “fully protected the three different types of cells against Aβ” and the “concentration required for 50% protection (EC50)” value is “below the micromolar levels”. For the same compound, the “protection of PC12 cells from Aβ cytotoxicity” value in the data set with PC12 cells [2] is given as “showed better protection of the cells”. In addition, in the data set on PC12 cells [2] (PC12 cells, LDH release, three days of incubation, read-out: concentration required for 50% protection (EC50)), the EC50 is below 1000 nM. The “most efficient concentration for blockage of the Aβ-induced intracellular calcium response” value in the data set with PC12 cells [3] (0.83 to 6.64 μM tested) is above 5 µM.
On to `CC(C)[C@H](NC(=O)[C@H](CCC(=O)O)NC(=O)[C@H](Cc1ccc(O)cc1)NC(=O)CNC(=O)[C@@H](N)CO)C(=O)N[C@@H](Cc1c[nH]cn1)C(=O)N[C@@H](Cc1c[nH]cn1)C(=O)O` [NA4, SGYEVHH, reference compound] (H-SGYEVHH-OH), for which the “protection of PC12 cells from Aβ cytotoxicity” value in the data set on PC12 cells [2] (Example 5, LDH release, three days) is reported as “not as effective at blocking the Aβ channel as NAHIS04”.
